Where a SMILES comes first, the peptide text is derived from it. [ ]: non-standard residue; d: D form. The star is where a group is joined. Benzoyl(4-O-C6H4-4-CONHMe) = CNC(=O)c1ccc(Oc2ccc(C(=O)*)cc2)cc1; X16 = O=C(O)CCNC(=O)c1ccc(Oc2ccc(C(=O)*)cc2)cc1; X19 = O=C(O)CNC(=O)c1ccc(Oc2ccc(C(=O)*)cc2)cc1; X6 = NCCCCNC(=O)c1ccc(Oc2ccc(C(=O)*)cc2)cc1; Benzoyl(4-OPh) = O=C(c1ccc(Oc2ccccc2)cc1)*; X9 = O=C(NCCCO)c1ccc(Oc2ccc(C(=O)*)cc2)cc1; NMeW = CN[C@@H](Cc1c[nH]c2ccccc12)C(=O)O; NMeY = CN[C@@H](Cc1ccc(O)cc1)C(=O)O; NMeI = CC[C@H](C)[C@H](NC)C(=O)O; NMeT = CN[C@H](C(=O)O)[C@@H](C)O; NMeE = CN[C@@H](CCC(=O)O)C(=O)O; NMeN = CN[C@@H](CC(N)=O)C(=O)O; NMeL = CN[C@@H](CC(C)C)C(=O)O; NMeK = CN[C@@H](CCCCN)C(=O)O; Dap(Me) = CNC[C@H](N)C(=O)O; NMeM = CN[C@@H](CCSC)C(=O)O; NMeV = CN[C@H](C(=O)O)C(C)C; β3hP = O=C(O)C[C@@H]1CCCN1; Orn = NCCC[C@H](N)C(=O)O; Aze = O=C(O)[C@@H]1CCN1; Dab = NCC[C@H](N)C(=O)O; Dap = NC[C@H](N)C(=O)O; Ava = NCCCCC(=O)O; GABA = NCCCC(=O)O
These compounds were tested against T1, MMP2 (Homo sapiens, UniProt P08253) (assay: Inhibitory effects on human MMP2 (Method 1), enzyme assay with MOCAc-Pro-Leu-Gly-Leu-A2pr(Dnp)-Ala-Arg-NH2 substrate, 96-well). Conditions: Test Example No. 1-1 (Method 1, 96-well microplate); read-out: Human MMP2, IC50.
T1 sequence (P08253 110-660): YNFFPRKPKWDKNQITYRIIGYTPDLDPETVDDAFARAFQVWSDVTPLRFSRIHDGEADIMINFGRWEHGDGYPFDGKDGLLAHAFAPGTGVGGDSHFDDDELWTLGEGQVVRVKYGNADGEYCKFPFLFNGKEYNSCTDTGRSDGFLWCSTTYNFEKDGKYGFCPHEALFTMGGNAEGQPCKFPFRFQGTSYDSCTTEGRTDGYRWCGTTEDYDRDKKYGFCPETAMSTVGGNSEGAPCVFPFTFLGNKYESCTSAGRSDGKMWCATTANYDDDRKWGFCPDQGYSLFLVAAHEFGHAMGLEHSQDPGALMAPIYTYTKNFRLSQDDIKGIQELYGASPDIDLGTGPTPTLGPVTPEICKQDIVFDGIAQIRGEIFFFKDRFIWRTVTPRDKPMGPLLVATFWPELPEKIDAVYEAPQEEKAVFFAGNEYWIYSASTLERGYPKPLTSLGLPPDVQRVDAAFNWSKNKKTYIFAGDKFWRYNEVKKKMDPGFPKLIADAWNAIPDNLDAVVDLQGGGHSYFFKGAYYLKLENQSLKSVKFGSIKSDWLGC
Format: biochemical
Experimental: In a reaction solution [50 mmol/L Tris-HCl (pH 7.5), 150 mmol/L NaCl, 10 mmol/L CaCl2, 0.05% Brij L23], 100 μg/mL human recombinant MMP2 enzyme and 1 mmol/L 4-Aminophenylmercuric acetate were mixed together, and reacted at 37° C. for 60 minutes. The human MMP2 activated through the reaction was poured into a 96-well microplate to reach a final concentration of 0.7 or 7 ng/mL.

Row | Compound | IC50
1 | CC[C@H](C)[C@@H](C(=O)N1CCC[C@H]1C(N)=O)N(C)C(=O)[C@H](CC(C)C)NC(=O)[C@H](C)NC(=O)[C@H](CC(=O)O)NC(=O)[C@H](CCC(=O)O)N(C)C(=O)CCCNC(=O)c1ccc(Oc2ccccc2)cc1 [Compound 126] ({Benzoyl(4-OPh)-GABA}-[NMeE]DAL[NMeI]P-NH2; N-terminus assumed) | 0.29 nM
2 | CC[C@H](C)[C@@H](C(=O)N1CCC[C@H]1C(N)=O)N(C)C(=O)[C@H](CC(C)C)NC(=O)[C@H](C)NC(=O)[C@H](CC(=O)O)NC(=O)[C@H](CCCCN)N(C)C(=O)CCCNC(=O)c1ccc(Oc2ccccc2)cc1 [Compound 127] ({Benzoyl(4-OPh)-GABA}-[NMeK]DAL[NMeI]P-NH2; N-terminus assumed) | 0.24 nM
3 | CC[C@H](C)[C@@H](C(=O)N1CCC[C@H]1C(N)=O)N(C)C(=O)[C@H](CC(C)C)NC(=O)[C@H](C)NC(=O)[C@H](CC(=O)O)NC(=O)[C@H](CCC(N)=O)NC(=O)CCCNC(=O)c1ccc(Oc2ccccc2)cc1 [Compound 128] ({Benzoyl(4-OPh)-GABA}-QDAL[NMeI]P-NH2; N-terminus assumed) | 0.15 nM
4 | CC[C@H](C)[C@@H](C(=O)N1CCC[C@H]1C(N)=O)N(C)C(=O)[C@H](CC(C)C)NC(=O)[C@H](C)NC(=O)[C@H](CC(=O)O)NC(=O)[C@H](Cc1ccc(O)cc1)N(C)C(=O)CCCNC(=O)c1ccc(Oc2ccccc2)cc1 [Compound 129] ({Benzoyl(4-OPh)-GABA}-[NMeY]DAL[NMeI]P-NH2) | 0.46 nM
5 | CC[C@H](C)[C@@H](C(=O)N1CCC[C@H]1C(N)=O)N(C)C(=O)[C@H](CC(C)C)NC(=O)[C@H](C)NC(=O)[C@H](CC(=O)O)NC(=O)[C@H](Cc1c[nH]c2ccccc12)N(C)C(=O)CCCNC(=O)c1ccc(Oc2ccccc2)cc1 [Compound 130] ({Benzoyl(4-OPh)-GABA}-[NMeW]DAL[NMeI]P-NH2; N-terminus assumed) | 0.36 nM
6 | CC[C@H](C)[C@@H](C(=O)N1CCC[C@H]1C(N)=O)N(C)C(=O)[C@H](CC(C)C)NC(=O)[C@H](C)NC(=O)[C@H](CC(=O)O)NC(=O)[C@H]([C@@H](C)O)N(C)C(=O)CCCNC(=O)c1ccc(Oc2ccccc2)cc1 [Compound 131] ({Benzoyl(4-OPh)-GABA}-[NMeT]DAL[NMeI]P-NH2; N-terminus assumed) | 0.36 nM
7 | CC[C@H](C)[C@@H](C(=O)N1CCC[C@H]1CC(N)=O)N(C)C(=O)[C@H](CC(C)C)NC(=O)[C@H](CN)NC(=O)[C@H](CC(=O)O)NC(=O)[C@@H]1CCN1C(=O)CCCNC(=O)c1ccc(Oc2ccccc2)cc1 [Compound 132] ({Benzoyl(4-OPh)-GABA}-[Aze]D[Dap]L[NMeI][β3hP]-NH2; N-terminus assumed) | 0.43 nM
8 | CC[C@H](C)[C@@H](C(=O)N1CCC[C@H]1CC(N)=O)N(C)C(=O)[C@H](CC(C)C)NC(=O)[C@H](CCN)NC(=O)[C@H](CC(=O)O)NC(=O)[C@@H]1CCN1C(=O)CCCNC(=O)c1ccc(Oc2ccccc2)cc1 [Compound 133] ({Benzoyl(4-OPh)-GABA}-[Aze]D[Dab]L[NMeI][β3hP]-NH2; N-terminus assumed) | 0.88 nM
9 | CC[C@H](C)[C@@H](C(=O)N1CCC[C@H]1C(N)=O)N(C)C(=O)[C@H](CC(C)C)NC(=O)[C@H](CCN)NC(=O)[C@H](CC(=O)O)NC(=O)[C@H](CCSC)N(C)C(=O)CCCNC(=O)c1ccc(Oc2ccccc2)cc1 [Compound 134] ({Benzoyl(4-OPh)-GABA}-[NMeM]D[Dab]L[NMeI]P-NH2) | 2 nM
10 | CC[C@H](C)[C@@H](C(=O)N1CCC[C@H]1C(N)=O)N(C)C(=O)[C@H](CC(C)C)NC(=O)[C@H](CCN)NC(=O)[C@H](CC(=O)O)NC(=O)[C@H](C(C)C)N(C)C(=O)CCCNC(=O)c1ccc(Oc2ccccc2)cc1 [Compound 135] ({Benzoyl(4-OPh)-GABA}-[NMeV]D[Dab]L[NMeI]P-NH2; N-terminus assumed) | 9.3 nM
11 | CC[C@H](C)[C@@H](C(=O)N1CCC[C@H]1C(N)=O)N(C)C(=O)[C@H](CC(C)C)NC(=O)[C@H](CCN)NC(=O)[C@H](CC(=O)O)NC(=O)[C@H](CC(C)C)N(C)C(=O)CCCNC(=O)c1ccc(Oc2ccccc2)cc1 [Compound 136] ({Benzoyl(4-OPh)-GABA}-[NMeL]D[Dab]L[NMeI]P-NH2; N-terminus assumed) | 4.7 nM
12 | CC(C)C[C@H](NC(=O)[C@H](CCN)NC(=O)[C@H](CC(=O)O)NC(=O)[C@@H](NC(=O)CCCNC(=O)c1ccc(Oc2ccccc2)cc1)C(C)C)C(=O)N(C)[C@@H](CCC(=O)O)C(=O)N1CCC[C@H]1CC(N)=O [Compound 143] ({Benzoyl(4-OPh)-GABA}-VD[Dab]L[NMeE][β3hP]-NH2; N-terminus assumed) | 2.6 nM
13 | CC(C)C[C@H](NC(=O)[C@H](CCN)NC(=O)[C@H](CC(=O)O)NC(=O)[C@H](CCC(=O)O)NC(=O)CCCNC(=O)c1ccc(Oc2ccccc2)cc1)C(=O)N(C)[C@@H](CCC(=O)O)C(=O)N1CCC[C@H]1CC(N)=O [Compound 144] ({Benzoyl(4-OPh)-GABA}-ED[Dab]L[NMeE][β3hP]-NH2; N-terminus assumed) | 0.26 nM
14 | CC(C)C[C@H](NC(=O)[C@H](CCN)NC(=O)[C@H](CC(=O)O)NC(=O)[C@H](CCCN)NC(=O)CCCNC(=O)c1ccc(Oc2ccccc2)cc1)C(=O)N(C)[C@@H](CCC(=O)O)C(=O)N1CCC[C@H]1CC(N)=O [Compound 145] ({Benzoyl(4-OPh)-GABA}-[Orn]D[Dab]L[NMeE][β3hP]-NH2; N-terminus assumed) | 0.72 nM
15 | CC[C@H](C)[C@@H](C(=O)N1CCC[C@H]1CC(N)=O)N(C)C(=O)[C@H](CC(C)C)NC(=O)[C@H](CCN)NC(=O)[C@H](CC(=O)O)NC(=O)[C@@H](NC(=O)CCCNC(=O)c1ccc(Oc2ccccc2)cc1)C(C)C [Compound 146] ({Benzoyl(4-OPh)-GABA}-VD[Dab]L[NMeI][β3hP]-NH2; N-terminus assumed) | 1.7 nM
16 | CC[C@H](C)[C@@H](C(=O)N1CCC[C@H]1CC(N)=O)N(C)C(=O)[C@H](CC(C)C)NC(=O)[C@H](CCN)NC(=O)[C@H](CC(=O)O)NC(=O)[C@H](CCC(=O)O)NC(=O)CCCNC(=O)c1ccc(Oc2ccccc2)cc1 [Compound 147] ({Benzoyl(4-OPh)-GABA}-ED[Dab]L[NMeI][β3hP]-NH2; N-terminus assumed) | 0.14 nM
17 | CC[C@H](C)[C@@H](C(=O)N1CCC[C@H]1CC(N)=O)N(C)C(=O)[C@H](CC(C)C)NC(=O)[C@H](CCN)NC(=O)[C@H](CC(=O)O)NC(=O)[C@H](CCCN)NC(=O)CCCNC(=O)c1ccc(Oc2ccccc2)cc1 [Compound 148] ({Benzoyl(4-OPh)-GABA}-[Orn]D[Dab]L[NMeI][β3hP]-NH2; N-terminus assumed) | 0.48 nM
18 | CC[C@H](C)[C@@H](C(=O)N1CCC[C@H]1CC(N)=O)N(C)C(=O)[C@H](CC(C)C)NC(=O)[C@H](CNC)NC(=O)[C@H](CC(=O)O)NC(=O)[C@H](CC(N)=O)N(C)C(=O)CCCNC(=O)c1ccc(Oc2ccccc2)cc1 [Compound 154] ({Benzoyl(4-OPh)-GABA}-[NMeN]D[Dap(Me)]L[NMeI][β3hP]-NH2; N-terminus assumed) | 0.44 nM
19 | CNC(=O)c1ccc(Oc2ccc(C(=O)NCCCC(=O)N[C@@H](CC(N)=O)C(=O)N[C@@H](CC(=O)O)C(=O)N[C@@H](C)C(=O)N[C@@H](CC(C)C)C(=O)N[C@@H](CCSC)C(=O)N3CCC[C@H]3C(N)=O)cc2)cc1 [Compound 177, N^2-(4-{4-[4-(methylcarbamoyl)phenoxy]benzamido}butanoyl)-L-asparaginyl-L-α-aspartyl-L-alanyl-L-leucyl-L-methionyl-L-prolinamide] ({Benzoyl(4-O-C6H4-4-CONHMe)-GABA}-NDALMP-NH2) | 0.21 nM
20 | CSCC[C@H](NC(=O)[C@H](CC(C)C)NC(=O)[C@H](C)NC(=O)[C@H](CC(=O)O)NC(=O)[C@H](CC(N)=O)NC(=O)CCCCNC(=O)c1ccc(Oc2ccc(C(=O)NCC(=O)O)cc2)cc1)C(=O)N1CCC[C@H]1C(N)=O [Compound 178] ({X19-Ava}-NDALMP-NH2; N-terminus assumed) | 3.6 nM
21 | CC(C)C[C@H](NC(=O)[C@H](CCN)NC(=O)[C@H](CC(=O)O)NC(=O)[C@H](CC(N)=O)NC(=O)CCCCNC(=O)c1ccc(Oc2ccc(C(=O)NCCCCN)cc2)cc1)C(=O)N(C)[C@@H](CCC(=O)O)C(=O)N1CCC[C@H]1CC(N)=O [Compound 181] ({X6-Ava}-ND[Dab]L[NMeE][β3hP]-NH2; N-terminus assumed) | 3.1 nM
22 | CC(C)C[C@H](NC(=O)[C@H](CCN)NC(=O)[C@H](CC(=O)O)NC(=O)[C@H](CC(N)=O)NC(=O)CCCCNC(=O)c1ccc(Oc2ccc(C(=O)NCCCO)cc2)cc1)C(=O)N(C)[C@@H](CCC(=O)O)C(=O)N1CCC[C@H]1CC(N)=O [Compound 182] ({X9-Ava}-ND[Dab]L[NMeE][β3hP]-NH2; N-terminus assumed) | 0.49 nM
23 | CC(C)C[C@H](NC(=O)[C@H](CCN)NC(=O)[C@H](CC(=O)O)NC(=O)[C@H](CC(N)=O)NC(=O)CCCCNC(=O)c1ccc(Oc2ccc(C(=O)NCCC(=O)O)cc2)cc1)C(=O)N(C)[C@@H](CCC(=O)O)C(=O)N1CCC[C@H]1CC(N)=O [Compound 183] ({X16-Ava}-ND[Dab]L[NMeE][β3hP]-NH2; N-terminus assumed) | 7 nM
